Results taken from patent US20080261810A1, “Insecticides Based on Neonicotinoids and Safeners” (priority 2004, published 2008).
Like-named read-outs stand apart in the source and are kept apart here.

Columns and labels:
[1] = test system: green peach aphid (Myzus persicae); type: in vivo
Procedure: To produce a suitable preparation of active compound, 1 part by weight of active compound is mixed with the stated amounts of solvent and emulsifier, and the concentrate is diluted with emulsifier-containing water to the desired concentration.
Cabbage leaves (Brassica oleracea) which are heavily infested by the green peach aphid (Myzus persicae) are treated by being dipped into the preparation of active compound of the desired concentration.
After the desired period of time, the kill in % is determined. 100% means that all aphids have been killed; 0% means that none of the aphids have been killed. The determined kill rates are entered into Colby's formula.

[2] = test system: caterpillars of the diamond back moth (Plutella xylostella, sensitive strain); settings: in vivo
Procedure: After the desired period of time, the kill in % is determined. 100% means that all caterpillars have been killed; 0% means that none of the caterpillars have been killed. The determined kill rates are entered into Colby's formula.

SMILES	Mortality in % after 1^d ([1]; 0.8 ppm, active compound alone)	Mortality in % after 1^d ([1]; in vivo)	Mortality in % after 1^d [2]
CN/C(=N\[N+](=O)[O-])NCc1cnc(Cl)s1 [Clothianidin, clothianidin]	40%		
O=[N+]([O-])/N=C1\NCCN1Cc1ccc(Cl)nc1 [Imidacloprid, imidacloprid]		45%	40%
